From the NIST ThermoML archive (doi:10.1016/j.jct.2015.05.013)

Test: cn = amount concentration of the nth substance listed, in mol/dm3
Conditions: 298.15 K, 101.3 kPa, Liquid, Taylor dispersion method

COC(=O)[C@@H](N)Cc1cnc[nH]1.Cl.Cl [methyl L-histidinate dihydrochloride] + O
Conditions | binary diffusion coefficient [m2/s]
c1 = 0.001 | 1.05e-09
c1 = 0.005 | 1.01e-09
c1 = 0.01 | 9.82e-10
c1 = 0.02 | 9.6e-10
c1 = 0.05 | 9.21e-10
c1 = 0.1 | 8.61e-10
